The assay concerns survivin. Kind of assay: Survivin ELISA assay on normal human keratinocyte cultures, related to total proteins (BCA). As to conditions: forskolin 4 μg/ml (10 μM). Type of assay: cell-based. As to the method:
The normal human keratinocytes are cultured in 75 cm^2 flasks, in an incubator at 37° C. under a humid atmosphere containing 5% CO2, in serum-free keratinocyte medium supplemented with EGF (Epidermal Growth Factor) and with BPE (Bovine Pituitary Extract) (KSFMc) (Gibco ref: 17005-034+37000-015). The cells are seeded (day D0) into 48-well microplates in a proportion of 50 000 cells in 500 μL of medium per well. After incubation for 24 hours (day D1), the cells have become adherent and the treatment step is then carried out. The seeding medium is removed and the treatment medium containing the ingredients to be evaluated at the various concentrations, or the excipient thereof (for example DMSO) in the same proportion, is then added to each culture well. A peak of survivin expression by the cells is observed after treatment for 16 hours. The wells are then rinsed with PBS. Half the wells of the microplate are used to lyse the keratinocytes and to assay the intracellular survivin. […] The total proteins are assayed using a BCA colorimetric test (reference: BC Assay Kit, Uptima Interchim), by measuring absorbance at 570 nm. […] After the enzyme reaction has been blocked with sulfuric acid, the survivin is quantified by measuring absorbance at 450 nm.

Consider 1 compound from patent publication US20100040706A1, “METHOD OF ANTI-AGEING COSMETIC CARE BY STIMULATION OF SURVIVIN EXPRESSION” (LVMH RECHERCHE, priority 2008, published 2010).

On to `C=C[C@@]1(C)CC(=O)[C@]2(O)[C@@]3(C)[C@@H](O)CCC(C)(C)[C@@H]3[C@H](O)[C@H](OC(C)=O)[C@@]2(C)O1` [Forskolin, forskolin], for which, under “16 h, solvent control = 100%”, the “% activation” value turned out to be 147.9%. The compound further had a Survivin (16 h treatment, normal human keratinocytes) of 7.27 pg/mg proteins.
